Test results from article PMC5654082 (Malaria Journal, 2017).
Counter-ions that a name gives are not always drawn.

Biological target: MATE2-K (Homo sapiens, UniProt Q86VL8)
Test: Export assay in HEK293 cells co-transduced with OCT1 and MATE2-K
Type: cell-based
Set-up: host or cells: HEK293, baculovirus transduction (CMV promoter), transient; co-transduced with human OCT1 in the export assay
Method: HEK293 cells were modified to transiently express (a combination of) human OCT1, OCT2, MATE1, MATE2-K, or eYFP. Briefly, cDNA of the respective genes was cloned downstream of a CMV promoter into a baculovirus, of which passage three was used to transduce HEK293 cells. These cells were seeded in poly-D-lysine coated 24- or 96-wells plates and grown in a 37 °C incubator at 5% CO2. Growth was initiated at ~ 25% confluency using 375 or 125 μL cell and complete medium (DMEM + GlutaMAX™-I supplemented with 10% fetal bovine serum) suspension per well, respectively. After 24 h, cells were transduced with 30 µL virus (10 µL virus + 20 µL complete medium in case of 96-wells plates) or 2 × 15 µL virus for cells that required simultaneous expression of two transporters. Finally, 195 µL sodium butyrate (45 µL for 96-wells plates) was added to a final concentration of 2 mM to enhance protein expression.
Import and export of PG and cycloguanil (CG) was assessed by single and double transduced HEK293 cells. In short, HEK293 cells seeded in 24-wells plates as described, were transduced separately with eYFP, OCT1, OCT2, MATE1 or MATE2-K, or with combinations of these viruses. Following the same procedure as for the cellular import assay described above, the import of 100 µM PG and CG was measured after 5 min incubation and data was plotted as mean pmol/mg/min ± SEM. For export (following OCT1 uptake) of 1 µM PG after 1 min of transport at pH 7.4, percentage of remaining cellular PG (compared to background) was plotted as mean ± SEM in GraphPad version 5.03. Significant reduction in uptake (i.e. export by MATEs) was determined using ln transformation and a one-way repeated measures ANOVA with Dunnet’s post test.
Anti-malarial concentration in the cell lysates was quantified using an LC–MS/MS system consisting of a UPLC, a binary solvent manager, a vacuum degasser and an autosampler, coupled to a Xevo TQ-S micro triple quadrupole mass spectrometer. Liquid chromatographic separation of the samples (stored at 10 °C; injection volume of 10 µL) was performed at 40 °C using a HSS T3 analytical column (1.8 μm; 100 × 2.1 mm) coupled to a VanGuard HSS T3 pre-column (1.8 µm; 5 × 2.1 mm). […] Positive ion mode was used with selected reaction monitoring (SRM) for the quantitative analysis of AMO, ART, ATO, CQ, CG, DHA, LUM, MQ, PQ, PG, and QN. The peak area of the most abundant product ion was used for quantification.

MATE2-K, sequence (Q86VL8 1-566 isoform Q86VL8-3): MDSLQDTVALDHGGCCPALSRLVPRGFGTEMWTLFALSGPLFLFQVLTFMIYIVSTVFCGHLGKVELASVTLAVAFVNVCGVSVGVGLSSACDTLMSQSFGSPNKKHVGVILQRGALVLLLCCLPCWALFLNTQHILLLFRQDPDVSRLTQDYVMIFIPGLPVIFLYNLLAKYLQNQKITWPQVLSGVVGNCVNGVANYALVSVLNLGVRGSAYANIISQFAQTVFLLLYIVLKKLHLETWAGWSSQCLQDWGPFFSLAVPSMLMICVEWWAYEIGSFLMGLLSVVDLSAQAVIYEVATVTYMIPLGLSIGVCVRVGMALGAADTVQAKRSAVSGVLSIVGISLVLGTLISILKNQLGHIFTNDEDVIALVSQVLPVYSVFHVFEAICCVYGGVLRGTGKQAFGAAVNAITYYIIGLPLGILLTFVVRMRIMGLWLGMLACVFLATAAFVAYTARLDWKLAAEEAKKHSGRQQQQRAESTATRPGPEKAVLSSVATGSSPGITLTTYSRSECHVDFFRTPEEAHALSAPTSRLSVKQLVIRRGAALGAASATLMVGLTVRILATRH

[H]/N=C(\N/C(=N/[H])Nc1ccc(Cl)cc1)NC(C)C [Proguanil, proguanil hydrochloride]
Intracellular concentration, percentage of its initial value (MATE2-K co-transduced with OCT1): 56% | Relative decrease in uptake by MATE2-K (OCT1/MATE2-K versus eYFP/OCT1 cells, 1 µM, 1 min): 44% | Uptake, percentage of eYFP control cells (cells expressing OCT1 and MATE2-K, 1 µM, 1 min, pH 7.4): 470 ± 80% | Fraction exported by MATE2-K (compared to eYFP/OCT1 transduced cells, 1 µM, 1 min): approximately 50%
